Measurements: article PMC12692955, “Acetylbinankadsurin A Decreases Macrophage Glycolysis and Pro-Inflammatory Phenotype Polarization via Inhibiting HIF-1α to Alleviate Hepatic Fibrosis in Mice” (Molecules, 2025)

Biological target: T1, HIF-1α (Homo sapiens, UniProt Q16665)
T1 construct: gene HIF1A; recombinant protein HIF-1α (MCE #HY-P74888)
Experiment: SPR (Biacore T200, HIF-1α amine-coupled to CM5 chip)
Format: binding

T1 sequence (Q16665 whole entry): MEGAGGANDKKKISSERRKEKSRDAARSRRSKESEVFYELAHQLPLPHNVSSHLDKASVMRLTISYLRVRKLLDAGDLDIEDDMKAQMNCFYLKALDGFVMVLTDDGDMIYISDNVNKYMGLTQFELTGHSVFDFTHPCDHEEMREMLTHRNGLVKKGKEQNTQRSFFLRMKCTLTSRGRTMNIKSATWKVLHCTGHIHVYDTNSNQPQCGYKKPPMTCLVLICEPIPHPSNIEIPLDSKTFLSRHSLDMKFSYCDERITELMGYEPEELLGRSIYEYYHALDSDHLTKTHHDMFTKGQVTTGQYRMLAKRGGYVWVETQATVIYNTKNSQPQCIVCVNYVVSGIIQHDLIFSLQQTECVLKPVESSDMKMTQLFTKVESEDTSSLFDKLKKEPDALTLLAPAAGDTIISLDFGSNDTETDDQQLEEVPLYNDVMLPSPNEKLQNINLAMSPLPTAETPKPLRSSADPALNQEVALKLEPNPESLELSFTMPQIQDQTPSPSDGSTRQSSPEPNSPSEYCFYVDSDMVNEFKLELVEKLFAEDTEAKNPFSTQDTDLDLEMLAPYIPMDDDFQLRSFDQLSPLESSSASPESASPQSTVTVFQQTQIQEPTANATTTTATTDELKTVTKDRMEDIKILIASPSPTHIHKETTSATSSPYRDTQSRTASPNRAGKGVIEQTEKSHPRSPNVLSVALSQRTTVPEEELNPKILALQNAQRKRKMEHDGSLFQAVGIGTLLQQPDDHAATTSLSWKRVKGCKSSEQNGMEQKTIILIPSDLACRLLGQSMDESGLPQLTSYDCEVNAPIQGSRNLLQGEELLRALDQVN

## COc1cc2c(c(O)c1OC)-c1c(cc3c(c1OC)OCO3)[C@H](OC(C)=O)[C@H](C)[C@H](C)C2 [ACBA, Acetylbinankadsurin A]
  Kd: 13 µM
